According to patent US9662404B2, “Compositions and methods for the delivery of molecules into live cells” (The Texas A&M University System, priority 2013, dated 2017):

Assays:
HeLa cells [1] = test: Quantitative determination of peptide uptake inside cells (bulk fluorescence of cell lysates); format: cell-based; details: acTAT 5-25 μM (FIG. 23)
Protocol: HeLa cells were seeded in a 48 well dish, grown and washed as described above. For the peptide uptake experiment, each well was incubated for 1 h with varying concentration of acTAT, TAT or dTAT (range: 5-25 μM peptide concentration). For the titration experiment, cells were incubated with dTAT (5 μM) and varying concentrations of DEAC-K9 (range: 1-20 μM). Cells were then washed with PBS and nrL-15 and imaged. Multiple images for each condition were obtained and processed. To lyse cells, nrL-15 was removed from the wells and a total of 100 μL of HeLa cell lysis Buffer (50 mM Tris pH 7.5, 2 mM EDTA, 2 mM DTT, 0.1% Triton X-100) was incubated with cells for 5 min. The cells were lysed and scraped off the dish and pipetted into a 1.5 mL microcentrifuge tube. The cell lysates were centrifuged at 13.2K RPM for 25 min. […] The fluorescence from the cell lysates were measured using a plate reader equipped with a fluorescence module (Ex==525, Em=580-640 nm) (GloMax®-Multi+ Detection System, Promega, Fitchburg, Wis.). For the titration experiment, 80 μL of supernatant was diluted to a total volume of 100 μL and the bulk fluorescence was measured using a SLM-8000C fluorometer (Ex=435 nm, Em=465-475 nm) (SLM Instruments, Bath, UK). The fluorescence emission was averaged and recorded. […] The absorbance at 600 nm was measured using the plate reader. […]

HeLa cells [2] = test: Delivery of peptides inside live cells, internalization assessed by fluorescence microscopy; format: cell-based; details: 1 h incubation
Protocol: The TAT, dTAT and acTAT peptides were incubated for 1 h with several cell lines and internalization was assessed by fluorescence microscopy. […] See also FIG. 5. […] The cell lines HeLa, NIH 3T3, COLO 316 and HaCaT were incubated with 5 μM dTAT for 1 h, washed and imaged. […] After imaging, cells were incubated at 37° C. in a humidified atmosphere containing 5% CO2 for 24 h, washed and imaged again. […] Cell viability was assessed by exclusion of the cell-impermeable nuclear stain SYTOX® Blue at both 1 h and 24 h time point. […] Inverted monochrome (black=fluorescence signal, white-no signal) fluorescence images were made of HeLa cells incubated with 10 or 20 μM of TAT for 1 h.
Live cells from different lines (HeLa, HaCat, NIH 3T3) were grown in Dulbecco's […] (DMEM) (Fisher) supplemented with 10% fetal bovine serum (FBS) (Fisher) and kept at 37° C. in a humidified atmosphere containing 5% CO2. Cells were then seeded in 8-well dishes so that the cells were 80%-90% confluent after 48 h. […] The media (nrL-15) used for incubation lacks cysteine to avoid reduction of the disulfide bond of dTAT. Cells were then incubated with different concentrations of the acTAT, TAT, or dTAT at 37° C. for 1 h. […] Images were collected using a Rolera-MGI Plus back-illuminated EMCCD camera (Qimaging, Surrey, BC, Canada). Images were acquired using bright field imaging and three standard fluorescence filter sets: CFP (Ex=436±10 nm/Em=480±20 nm), RFP (Ex=560±20 nm/Em=630±35 nm), and FITC (Ex=488±10 nm/Em=520±20 nm). The fluorescence intensities of different cells were measured with the SlideBook 4.2 software (Olympus, Center Valley, Pa.) and the average fluorescence intensity was determined for each condition. It has been previously reported that CPPs labeled with fluorophores such as TMR can photosensitize membranes and cause endosomal leakage upon light irradiation. See, Srinivasan, D. et al., “Conjugation to the cell-penetrating peptide TAT potentiates the photodynamic effect of carboxytetramethylrhodamine,” PloS one 6:e17732 (2011) and Muthukrishnan, N., et al., “Synergy Between Cell-Penetrating Peptides and Singlet Oxygen Generators Leads to Efficient Photolysis of Membranes,” Photochemistry and Photobiology 89:625-630 (2012), each incorporated herein by reference in its entirety. […] First, all delivery experiments were performed under conditions of minimal light irradiation (dark room with dim red light). When fluorescence imaging is required, probes (e.g., SNAP surface 488, EGFP) are imaged before dTAT is, thereby minimizing the possible effect of light on endosomal release. For experiments performed with Cre and Hoxb4, cells are not imaged and not exposed to light (not at all for Hoxb4, 12 h after incubation for Cre).

HeLa cells [3] = test: Effect of endocytic inhibitors on cytosolic delivery of dTAT; format: cell-based; details: 50 μM amiloride or 200 nM bafilomycin pre-treatment, then 5 μM dTAT and inhibitor
Protocol: (§1) FIGS. 8A-8C illustrate that dTAT mediates endosomal escape. (FIG. 8A) Effect of endocytic inhibitors on the cellular distribution of dTAT. HeLa cells were pre-treated with 50 μM amiloride or 200 nM bafilomycin for 30 and 20 min respectively, washed, and incubated with 5 μM dTAT and inhibitor. […] Scale bar, 10 μm. […] A schematic illustration of the experimental steps is shown (top). First, cells were incubated with 5 μM DEAC-K9 for 1 h and washed. Inverted monochrome images show a fluorescence punctuate distribution after incubation with DEAC-K9 alone. The same cells were then incubated with 5 μM dTAT for 1 h. Images show a redistribution of DEAC-K9 to the cytosol and nucleus (inhibited by bafilomycin). Scale bars, 10 μm. (FIG. 8C) The endosomolytic activity of dTAT is highly efficient. HeLa cells expressing SNAPH2B were incubated with 5 μM dTAT and 5 μM SNAP-Surface® 488. Fluorescence images show accumulation of SNAP-Surface® 488 in the nucleus. […] Small panels show cytosolic and nuclear fluorescence of TMR. Scale bars, 10 μm.
(§2) To test whether endosomal escape is involved in delivery of dTAT, the effects of amiloride, a macropinocytosis inhibitor, and bafilomycin, an inhibitor of endosomal acidification, were assessed. […] Cells were then washed and incubated with dTAT (FIG. 8B). […] This redistribution was however inhibited by bafilomycin.

HeLa cells [4] = test: dTAT-induced cytosolic release of DEAC-K9 trapped inside endosomes; format: cell-based
Protocol: as §1, §2

NIH 3T3 cells = test: HoxB4 and TAT-HoxB4 delivery, luciferase reporter under a HoxB4-inducible promoter; format: cell-based, murine
Protocol: Next, the delivery of the therapeutically important transcription factor HoxB4 was tested. HoxB4 can penetrate cells by itself or when fused to the […] TAT and activate transcription. […] NIH 3T3 cells were transfected with a vector containing the luciferase gene under a HoxB4-inducible promoter and with a β-galactosidase reporter as internal control. Cells were incubated with HoxB4 or TAT-HoxB4, in the absence or presence of dTAT for 1.5 h. Cells were then lysed and luciferase expression was assessed by measuring the luminescence of cell lysates normalized to β-galactosidase activity. […] These values are consistent with previously published reports. In contrast, addition of dTAT (3 μM), led to a luciferase induction of 53.1 and 307.4, respectively. The luciferase induction was therefore increased 24-fold in the presence of dTAT for HoxB4 and 61-fold for TAT-HoxB4. […] While increasing the transcriptional output of HoxB4 is valuable, high levels of HoxB4 expression can result in anti-proliferative and transforming effects. Precisely controlling the level and activity of HoxB4 inside cells is therefore important to achieve a desirable biological outcome. Because dTAT appears to act independently of the molecules used for co-incubation in our assays, it was hypothesized that it might be possible to titrate the amount of protein that penetrates cells by varying the protein concentration in the media while keeping dTAT concentration constant. Under this scenario, the efficiency of endosomal escape should remain unaffected but the amount of material released from endosomes should change.
The murine fibroblast cell line (NIH-3T3, stably transfected with the E2A-PBX vector), the luciferase reporter vector, pML (5×HOX/PBX; contains a promoter with binding sites for HOXB4 and PBX) and the β-gal internal control vector used in the following studies were kindly provided by P. Zandstra (University of Toronto, Ontario, Canada). The cells were initially cultured in 100 mm dishes at 37° C. with 5% CO2 in DMEM supplemented with 10% FBS. For experimental purposes, however, cells were seeded in 24-well plates at a density of 5-6×10^4 cells/well for 24 hours. Subsequently, cells were co-transfected with 0.8 μg/mL of pML (5×HOX/PBX) and of the β-gal internal control vector using Lipofectamine 2000. Twelve hours post-transfection, cells were washed and incubated with TAT-HoxB4 or HoxB4 (both at 200 nM, unless otherwise noted; see below) with or without TAT or dTAT in nrL-15 for 90 min. Some cells were also incubated with TAT-mCherry (200 nM) with and without the peptides. After incubation, all cells were washed with PBS and lysed according to the manufacturer's protocol for the reporter lysis buffer (RLB) (Promega). For titration experiments, the same protocol was followed, with the exception that HoxB4 concentrations were varied (25, 50, 100, 150 and 200 nM). In order to quantitate the luciferase reporter activity, 100 μL of luciferase assay reagent (Promega) was added to 20 μL of cell lysate and bioluminescence was immediately measured using a SpectraMaxL luminometer (Sunnyvale, Calif.). […] Absorbance was then measured at 450 nm using the plate reader. Since the absorption spectrum of the chromophore (TMR) conjugated to the peptide used in this study overlaps with that of β-gal, 20 μL of cell lysate containing the peptide was also diluted with 180 μL of the lysis buffer and absorbance values obtained at 450 nm were subtracted from that of the β-gal absorbance values. […]

[5] = tested on: HeLa transfected with the pCALNL-GFP plasmid; format: cell-based
Protocol: The number of cells in the images was approximately the same as assessed by bright field microscopy (1,000 cells/experiment, experiments in triplicate, average and standard deviations represented). Scale bars, 100 μM.
To further confirm that functional proteins can penetrate cells upon incubation with dTAT, delivery of Cre recombinase was tested. In this assay, Cre induces recombination of a loxP-STOP-loxP sequence upstream of the egfp gene of a reporter plasmid.

C(S—CH2CONH2)K(ε-NH-TMR)TAT [acTAT]
endosomal escape when internalized amount is above the dTAT threshold level (HeLa cells [1]): does not achieve endosomal escape
cellular localization of peptide fluorescence (HeLa cells [2]; 1-20 μM): punctate distribution

N=C(N)NC(=O)c1nc(Cl)c(N)nc1N [amiloride]
effect of inhibitor on cytosolic delivery of dTAT (HeLa cells [3]): inhibited the cytosolic delivery of dTAT

CO/C1=C\C(C)=C\[C@@H](C)[C@@H](O)[C@@H](C)C/C(C)=C/C=C/[C@H](OC)[C@@H]([C@@H](C)[C@@H](O)[C@H](C)[C@@]2(O)C[C@@H](O)[C@H](C)[C@@H](C(C)C)O2)OC1=O [bafilomycin, reference compound]
effect of bafilomycin on dTAT-induced DEAC-K9 redistribution (HeLa cells [4]): inhibited
effect of inhibitor on cytosolic delivery of dTAT (HeLa cells [3]): inhibited the cytosolic delivery of dTAT

HoxB4: transcription factor with therapeutic potential for in vitro expansion of hematopoietic stem cells
luciferase induction versus HoxB4 concentration (NIH 3T3 cells; HoxB4 25-200 nM, dTAT 3 μM): responded linearly with the concentration of HoxB4 in the media
increase in luciferase activity over cells not treated with protein (NIH 3T3 cells; protein 200 nM alone, 1.5 h): 2.2 fold
luciferase induction (NIH 3T3 cells; protein 200 nM with dTAT 3 μM, 1.5 h): 53.1 fold
increase of luciferase induction in the presence of dTAT over protein alone (NIH 3T3 cells; protein 200 nM, dTAT 3 μM): 24 fold

CK(ε-NH-TMR)TAT ({Cys-K(TMR)}-RKKRRQRRRG-NH2) [monomer product: cysteine, TMR-modified lysine, TAT CPP domain … with C-terminal glycine amide]
percentage of EGFP+ cells [5]: 4.8%
cellular localization of peptide fluorescence (HeLa cells [2]; 20 μM): many cells display cytosolic fluorescence
cellular localization of peptide fluorescence (HeLa cells [2]; up to 10 μM): localized inside endosomes
